Experimental data published in patent US20240166626A1, “Compounds and Methods for Preventing, Treating, or Ameliorating Airway Disease” (THOMAS JEFFERSON UNIVERSITY, priority 2021, published 2024).

System: HASM cells
Test: Human airway smooth muscle cell scratch (migration) assay
Format: cell-based
Conditions: 1 μM DFPQ, PDGF, 24 hours, FIG. 4F
Description: FIGS. 4A-4F: DFPQ inhibits internalization of the β2AR and protects from agonist induced desensitization in cell and tissue models. FIG. 4A: Effect of DFPQ on agonist-promoted internalization of the β2AR. HEK 293 cells stably expressing FLAG-β2AR were pre-incubated with 0.1% DMSO or 10 μM DFPQ for 30 min and then stimulated with the indicated concentrations of ISO for up to 60 min. Cells were fixed and receptor surface expression was measured by ELISA. […] Cells were lysed and cAMP production was measured by ELISA. […] FIG. 4C: Mouse airway tissue were contracted with 1 μM methacholine for 5 min and then incubated overnight with 1 μM ISO±1 μM DFPQ. Airway slices were washed, re-contracted with methacholine, and incubated with ISO for 1 hour (n=4 bronchioles). Airway contractility was measured by luminal area of bronchioles by microscopy at various times. FIG. 4D: Bar graphs represent normalized ISO-promoted relaxation from methacholine contraction on day 2 of treatment at the 25 min timepoint from 4 tracheal rings. *, p<0.05 FIG. 4E: HASM cells were scratched and incubated overnight in PDGF containing serum free media. Cells were imaged to evaluate migration into the scratched area. FIG. 4F: Densitometric analysis of migration into scratched area (n=3 experiments). ***, p<0.001; **, p<0.01
Cell culture GLOSENSOR™ cells (Promega) were maintained in Dulbecco's modified Eagle's medium (DMEM) containing 10% fetal bovine serum (FBS) and 200 μg/ml Hygromycin B. […]® ADRB2 cells (DiscoveRx) were maintained with the AssayComplete™ Cell Culture kit (DiscoveRx catalog #92-3107G). […] Cells were read every three minutes for 18 minutes on a PolarStar Optima plate reader (BMG) to establish peak signal. ISO was added to each well to a final concentration of 1 μM, and luminescence was determined in kinetic mode at room temperature (23-25° C.). Response was analyzed relative to forskolin (7 μM) and alprenolol (1 μM) as positive and negative controls, respectively. […] Luminescence was determined at room temperature (23-25° C.) on a PolarStar Optima plate reader (BMG). […]

Fc1ccc(Nc2nc(NC3CCCCC3)c3ccccc3n2)cc1F [DFPQ, N^4-cyclohexyl-N^2-(3,4-difluorophenyl)quinazoline-2,4-diamine]
effect on β-agonist (SAL or ISO) reduction of HASM migration: significantly enhanced
